Experimental data: PubChem BioAssay (NCI)
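Five compound concentrations were applied to cells in 96-well plates for 48 hours; endpoints were derived by simple linear interpolation of the resulting dose-response curve. At the TGI there is no net growth.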

Experiments:
Test in all cases: NCI tumour cell line growth inhibition, 48 h
HCC-2998 colon = system: HCC-2998 colon
SF-268 CNS = system: SF-268 CNS
SN12C renal = system: SN12C renal
SK-MEL-5 melanoma = system: SK-MEL-5 melanoma
UO-31 renal = system: UO-31 renal
SK-MEL-28 melanoma = system: SK-MEL-28 melanoma
M14 melanoma = system: M14 melanoma
M19-MEL melanoma = system: M19-MEL melanoma
SF-295 CNS = system: SF-295 CNS
K-562 leukemia = system: K-562 leukemia
KM20L2 colon = system: KM20L2 colon
COLO 205 colon = system: COLO 205 colon
HOP-18 NSCLC = system: HOP-18 NSCLC
KM12 colon = system: KM12 colon
SNB-78 CNS = system: SNB-78 CNS
SF-539 CNS = system: SF-539 CNS
DMS 114 small cell lung = system: DMS 114 small cell lung
A498 renal = system: A498 renal
ACHN renal = system: ACHN renal
MALME-3M melanoma = system: MALME-3M melanoma
CCRF-CEM leukemia = system: CCRF-CEM leukemia
NCI-H522 lung = system: NCI-H522 lung
SNB-75 CNS = system: SNB-75 CNS
LOX IMVI melanoma = system: LOX IMVI melanoma
NCI-H460 lung = system: NCI-H460 lung
NCI-H226 lung = system: NCI-H226 lung
XF 498 CNS = system: XF 498 CNS
HOP-92 NSCLC = system: HOP-92 NSCLC
DLD-1 colon = system: DLD-1 colon
NCI-H23 lung = system: NCI-H23 lung
HL-60(TB) leukemia = system: HL-60(TB) leukemia
A549 NSCLC = system: A549 NSCLC
OVCAR-8 ovarian = system: OVCAR-8 ovarian
HCT-116 colon = system: HCT-116 colon
SW-620 colon = system: SW-620 colon
RXF 393 renal = system: RXF 393 renal
OVCAR-5 ovarian = system: OVCAR-5 ovarian
U251 CNS = system: U251 CNS
OVCAR-4 ovarian = system: OVCAR-4 ovarian
RPMI-8226 leukemia = system: RPMI-8226 leukemia
786-0 renal = system: 786-0 renal
TK-10 renal = system: TK-10 renal
OVCAR-3 ovarian = system: OVCAR-3 ovarian
SR leukemia = system: SR leukemia
UACC-257 melanoma = system: UACC-257 melanoma
DMS 273 small cell lung = system: DMS 273 small cell lung
CAKI-1 renal = system: CAKI-1 renal
IGROV1 ovarian = system: IGROV1 ovarian
SK-OV-3 ovarian = system: SK-OV-3 ovarian
SNB-19 CNS = system: SNB-19 CNS
SK-MEL-2 melanoma = system: SK-MEL-2 melanoma
EKVX NSCLC = system: EKVX NSCLC
UACC-62 melanoma = system: UACC-62 melanoma
HT29 colon = system: HT29 colon
HCT-15 colon = system: HCT-15 colon
MOLT-4 leukemia = system: MOLT-4 leukemia
LXFL 529 NSCLC = system: LXFL 529 NSCLC
HOP-62 NSCLC = system: HOP-62 NSCLC

## CC(C)C(=O)N1C(=O)O[C@@H](c2ccccc2)[C@H]1C
HCC-2998 colon
  TGI: > 100 µM
SF-268 CNS
  TGI: > 100 µM
SN12C renal
  TGI: > 100 µM
SK-MEL-5 melanoma
  TGI: > 100 µM
UO-31 renal
  TGI: > 100 µM
SK-MEL-28 melanoma
  TGI: > 100 µM
M14 melanoma
  TGI: > 100 µM
M19-MEL melanoma
  TGI: > 100 µM
SF-295 CNS
  TGI: > 100 µM
K-562 leukemia
  TGI: > 100 µM
KM20L2 colon
  TGI: > 100 µM
COLO 205 colon
  TGI: > 100 µM
HOP-18 NSCLC
  TGI: > 100 µM
KM12 colon
  TGI: > 100 µM
SNB-78 CNS
  TGI: > 100 µM
SF-539 CNS
  TGI: > 100 µM
DMS 114 small cell lung
  TGI: > 100 µM
A498 renal
  TGI: > 100 µM
ACHN renal
  TGI: > 100 µM
MALME-3M melanoma
  TGI: > 100 µM
CCRF-CEM leukemia
  TGI: > 100 µM
NCI-H522 lung
  TGI: > 100 µM
SNB-75 CNS
  TGI: > 100 µM
LOX IMVI melanoma
  TGI: > 100 µM
NCI-H460 lung
  TGI: > 100 µM
NCI-H226 lung
  TGI: > 100 µM
XF 498 CNS
  TGI: > 100 µM
HOP-92 NSCLC
  TGI: > 100 µM
DLD-1 colon
  TGI: > 100 µM
NCI-H23 lung
  TGI: > 100 µM
HL-60(TB) leukemia
  TGI: > 100 µM
A549 NSCLC
  TGI: > 100 µM
OVCAR-8 ovarian
  TGI: > 100 µM
HCT-116 colon
  TGI: > 100 µM
SW-620 colon
  TGI: > 100 µM
RXF 393 renal
  TGI: > 100 µM
OVCAR-5 ovarian
  TGI: > 100 µM
U251 CNS
  TGI: > 100 µM
OVCAR-4 ovarian
  TGI: > 100 µM
RPMI-8226 leukemia
  TGI: > 100 µM
786-0 renal
  TGI: > 100 µM
TK-10 renal
  TGI: > 100 µM
OVCAR-3 ovarian
  TGI: > 100 µM
SR leukemia
  TGI: > 100 µM
UACC-257 melanoma
  TGI: > 100 µM
DMS 273 small cell lung
  TGI: > 100 µM
CAKI-1 renal
  TGI: 97.9 µM
IGROV1 ovarian
  TGI: > 100 µM
SK-OV-3 ovarian
  TGI: > 100 µM
SNB-19 CNS
  TGI: > 64.7 µM
SK-MEL-2 melanoma
  TGI: > 100 µM
EKVX NSCLC
  TGI: > 100 µM
UACC-62 melanoma
  TGI: > 100 µM
HT29 colon
  TGI: > 100 µM
HCT-15 colon
  TGI: > 100 µM
MOLT-4 leukemia
  TGI: > 100 µM
LXFL 529 NSCLC
  TGI: > 100 µM
HOP-62 NSCLC
  TGI: > 100 µM
